Like-named read-outs stand apart in the source and are kept apart here.
How the values were obtained:
[1] = target: T1, human P-gp (Homo sapiens, UniProt P08183); test: P-gp assay in transfected LLC-PK1 cells; format: in vitro ADME; details: read-out: P-gp transporter ER human
T1 construct: expressed in transfected cells; host or cells: LLC-PK1 (porcine kidney epithelial) cells
Procedure: (§1) The general permeability of the compound was assessed using the parallel artificial membrane permeability (PAMPA) assay and the permeability-glycoprotein (P-gp) assay was used to specifically test for brain penetration. PAMPA data were generated as previously reported by our group.[44] The P-gp assay, which evaluates the brain penetration of test compounds, was performed as described elsewhere.[45] Briefly, transfected porcine kidney epithelial (LLC-PK1) cells expressing human or mouse P-gp were cultured on 96-well semipermeable filter membrane plates (Millipore, Darmstadt, Germany). Cells formed a polarized monolayer with tight junctions that acted as a barrier between apical and basolateral compartments. P-gp was expressed in the apical-facing membrane of the monolayer (tightness confirmed using Lucifer yellow). […] The effect of P-gp was measured by expressing the efflux ratio of the unidirectional A > B and B > A Papp values. The mean permeability (A > B and B > A Papp) was determined in the absence of P-gp via the addition of the selective P-gp inhibitor, tariquidar.

[2] = target: T2, mouse P-gp (Mus musculus, UniProt P21447); test: P-gp assay in transfected LLC-PK1 cells; format: in vitro ADME; details: read-out: P-gp transporter ER mouse
T2 construct: expressed in transfected cells; host or cells: LLC-PK1 (porcine kidney epithelial) cells
Procedure: as §1

[3] = Single-dose pharmacokinetics in male Wistar rats; format: in vivo; details: rat, plasma
Procedure: To characterize the pharmacokinetic behavior of RNB-61, studies in rodents were conducted at the in vivo facility of F. Hoffmann-La Roche Ltd. (Basel, Switzerland). The plasma-concentration time profile was studied in rodents after single-dose RNB-61 administration by oral gavage (p.o. microsuspension excipients 7.5% gelatin/0.62% NaCl) and intravenous bolus injection (i.v. solution, excipients NMP:NaCl (30:70)). Three groups of male Wistar rats (n = 2 per group) were administered RNB-61 either at 1 mg kg^–1 i.v., 3 mg kg^–1 p.o., or 26 mg kg^–1 p.o. Plasma samples were drawn at 0.083, 0.25, 0.5, 1, 2, 4, 8, and 24 postdose in the i.v. group and at 0.25, 0.5, 0.75, 1.5, 3, 5, 8, and 24 h postdose in the p.o. groups. The samples were analyzed for RNB-61 concentration by LC/MS-MS. For the LC/MS-MS analysis, and the samples were prepared by adding 100 uL to 400 uL ACN with ISTD (100 ng/mL Bosantan in ACN/MeOH 1/1), stirring, and centrifuging (4000 rpm, 65’). 100 uL of the supernatant were pipetted and diluted with 400 μL H2O at pH 3. The analytes were separated on a Restek C18 column (5 μm, 1.0 × 3 mm). The mobile phase consisted of water containing 0.1% HCOOH as solvent A and ACN containing 0.1% HCOOH as solvent B. The gradient curve starting with 5% B was changed to 90% B between 0.4 and 0.6 min and further increased to 95% B between 0.6 and 1.2 min. This was maintained until 1.4 min and then reduced and kept at 5% B between 1.45 and 2.0 min. The mass spectrometer was operated in the positive mode. All LC-MS/MS was done using the Agilent RapidFire Analyzer software (version 4.3). The pharmacokinetic parameters were estimated by noncompartmental analysis in the Certara WinNonlin software (version 5.3). A similar study design was run in mice with three groups receiving 2 mg kg^–1 i.v., 4 mg kg^–1 p.o., or 26 mg kg^–1 p.o., and plasma sampling occurring in a composite profile (n = 2 for each time point) up to 7 or 24 h postdose. Male C57/BL6 mice (n = 5 per group) were used to study the influence of P-gp efflux on brain penetration. Two groups of mice were administered RNB-61 by i.v. bolus injection at 1 mg kg^–1 (2 groups). In order to block P-gp activity, an i.v. bolus of 5 mg kg^–1 tariquidar[46] was injected into one group 30 min prior to RNB-61. Plasma was collected at 0.083, 0.25, 0.5, 2, 4, and 7 h postdose in a composite profile. Brain, CSF, and vitreous body were collected at terminal time points 0.5, 2, 4, and 7 h postdose.

[4] = Microsomal clearance; format: in vitro ADME; details: human, human microsomes; Table 1

T2 sequence (P21447 whole entry): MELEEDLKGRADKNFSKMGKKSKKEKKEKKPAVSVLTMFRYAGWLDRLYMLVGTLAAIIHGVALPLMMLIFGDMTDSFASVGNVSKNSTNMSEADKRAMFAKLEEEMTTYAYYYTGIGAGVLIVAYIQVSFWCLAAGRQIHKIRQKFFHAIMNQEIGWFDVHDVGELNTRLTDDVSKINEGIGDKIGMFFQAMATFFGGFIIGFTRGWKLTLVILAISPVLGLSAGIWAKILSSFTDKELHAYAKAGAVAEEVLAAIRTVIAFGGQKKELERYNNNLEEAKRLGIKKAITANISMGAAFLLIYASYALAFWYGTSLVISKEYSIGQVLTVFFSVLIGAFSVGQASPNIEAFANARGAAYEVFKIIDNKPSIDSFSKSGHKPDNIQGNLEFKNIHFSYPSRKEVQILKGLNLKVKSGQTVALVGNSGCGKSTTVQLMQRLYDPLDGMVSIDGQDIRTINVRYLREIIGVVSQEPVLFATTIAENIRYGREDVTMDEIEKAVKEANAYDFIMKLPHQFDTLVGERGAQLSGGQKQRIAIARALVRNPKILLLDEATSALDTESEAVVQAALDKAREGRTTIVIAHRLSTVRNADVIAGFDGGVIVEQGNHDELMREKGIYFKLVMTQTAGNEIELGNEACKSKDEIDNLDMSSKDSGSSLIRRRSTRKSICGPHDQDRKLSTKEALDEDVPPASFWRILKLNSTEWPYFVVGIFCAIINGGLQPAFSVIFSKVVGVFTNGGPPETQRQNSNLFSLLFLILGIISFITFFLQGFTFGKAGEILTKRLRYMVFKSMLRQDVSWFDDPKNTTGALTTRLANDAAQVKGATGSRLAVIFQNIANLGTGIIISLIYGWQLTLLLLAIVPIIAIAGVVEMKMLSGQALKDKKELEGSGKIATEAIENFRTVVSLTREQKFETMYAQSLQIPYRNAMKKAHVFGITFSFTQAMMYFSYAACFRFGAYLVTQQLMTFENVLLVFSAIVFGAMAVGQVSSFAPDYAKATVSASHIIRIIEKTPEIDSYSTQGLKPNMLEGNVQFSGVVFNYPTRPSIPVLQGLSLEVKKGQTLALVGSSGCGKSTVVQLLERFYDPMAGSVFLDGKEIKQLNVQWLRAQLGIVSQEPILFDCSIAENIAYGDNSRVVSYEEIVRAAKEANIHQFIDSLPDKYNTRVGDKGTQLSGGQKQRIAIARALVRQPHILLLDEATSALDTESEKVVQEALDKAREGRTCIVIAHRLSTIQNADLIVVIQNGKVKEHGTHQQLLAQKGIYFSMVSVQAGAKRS
T1 sequence (P08183 whole entry): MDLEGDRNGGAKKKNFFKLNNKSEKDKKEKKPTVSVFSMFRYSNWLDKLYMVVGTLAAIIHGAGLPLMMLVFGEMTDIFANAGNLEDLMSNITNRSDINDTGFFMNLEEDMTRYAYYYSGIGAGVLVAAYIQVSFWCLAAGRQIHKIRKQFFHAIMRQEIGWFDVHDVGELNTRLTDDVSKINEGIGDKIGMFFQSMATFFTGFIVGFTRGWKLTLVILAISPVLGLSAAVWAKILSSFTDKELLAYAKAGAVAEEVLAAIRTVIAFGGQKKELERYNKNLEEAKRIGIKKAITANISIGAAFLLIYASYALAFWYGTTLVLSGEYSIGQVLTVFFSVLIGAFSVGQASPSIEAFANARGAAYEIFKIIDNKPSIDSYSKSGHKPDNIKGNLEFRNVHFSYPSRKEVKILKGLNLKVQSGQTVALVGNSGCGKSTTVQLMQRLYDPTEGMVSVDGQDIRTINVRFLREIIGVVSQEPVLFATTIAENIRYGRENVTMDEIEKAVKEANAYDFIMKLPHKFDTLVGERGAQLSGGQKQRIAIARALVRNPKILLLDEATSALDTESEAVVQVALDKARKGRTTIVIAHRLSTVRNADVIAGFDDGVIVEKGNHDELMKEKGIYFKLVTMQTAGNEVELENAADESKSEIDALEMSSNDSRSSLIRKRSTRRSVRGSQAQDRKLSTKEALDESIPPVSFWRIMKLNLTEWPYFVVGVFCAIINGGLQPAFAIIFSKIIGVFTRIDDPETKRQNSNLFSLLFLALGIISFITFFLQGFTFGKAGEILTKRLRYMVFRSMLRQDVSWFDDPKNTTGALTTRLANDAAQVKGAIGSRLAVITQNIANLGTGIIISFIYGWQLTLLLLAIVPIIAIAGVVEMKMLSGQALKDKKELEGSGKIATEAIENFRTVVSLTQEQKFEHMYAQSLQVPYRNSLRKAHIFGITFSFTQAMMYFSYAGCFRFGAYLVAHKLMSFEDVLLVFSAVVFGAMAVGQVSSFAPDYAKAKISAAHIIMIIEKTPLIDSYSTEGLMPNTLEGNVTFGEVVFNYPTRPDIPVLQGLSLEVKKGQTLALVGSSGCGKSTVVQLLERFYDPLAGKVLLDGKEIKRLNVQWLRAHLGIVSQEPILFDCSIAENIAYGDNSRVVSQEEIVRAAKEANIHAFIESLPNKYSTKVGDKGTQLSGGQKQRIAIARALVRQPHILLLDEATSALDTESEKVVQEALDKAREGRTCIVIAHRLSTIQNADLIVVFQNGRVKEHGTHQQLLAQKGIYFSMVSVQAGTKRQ

Cn1c(C(C)(C)C)cc(=NC(=O)c2cc(C(F)(F)F)ccc2OCC(C)(C)O)n1CC1CCC1 [RNB-61]
efflux ratio at 3 h [1]: 40.6
efflux ratio at 3 h [2]: 26.8
AUC(0-inf) ([3]; iv, 1 mg kg^–1 i.v.): 5170 ng·h/mL
Tmax ([3]; iv, 1 mg kg^–1 i.v.): 0.083 h
clearance ([3]; iv, 1 mg kg^–1 i.v.): 3.5 mL/min/kg
half-life ([3]; iv, 1 mg kg^–1 i.v.): 6 h
Cmax ([3]; iv, 1 mg kg^–1 i.v., read-out: Cmax): 619 ng/mL
Cmax ([3]; iv, 1 mg kg^–1 i.v., read-out: Cmax (molar)): 1280 nM
Vd ([3]; iv, 1 mg kg^–1 i.v., read-out: Vss): 1.6 L/kg
AUC(0-inf) ([3]; po, 3 mg kg^–1 p.o.): 7410 ng·h/mL
Tmax ([3]; po, 3 mg kg^–1 p.o.): 5.5 h
bioavailability ([3]; po, 3 mg kg^–1 p.o.): 48%
half-life ([3]; po, 3 mg kg^–1 p.o.): 7.1 h
Cmax ([3]; po, 3 mg kg^–1 p.o., read-out: Cmax): 446 ng/mL
Cmax ([3]; po, 3 mg kg^–1 p.o., read-out: Cmax (molar)): 926 nM
AUC(0-inf) ([3]; po, 26 mg kg^–1 p.o.): 117000 ng·h/mL
Tmax ([3]; po, 26 mg kg^–1 p.o.): 3 h
bioavailability ([3]; po, 26 mg kg^–1 p.o.): 87%
half-life ([3]; po, 26 mg kg^–1 p.o.): 49 h
Cmax ([3]; po, 26 mg kg^–1 p.o., read-out: Cmax): 1710 ng/mL
Cmax ([3]; po, 26 mg kg^–1 p.o., read-out: Cmax (molar)): 3500 nM
microsomal CLint [4]: ≤ 10 µL/min/mg

From article PMC11320734 (ACS Pharmacology & Translational Science, 2024)
